Test results: patent US8937183B2, “Detection of hydrogen peroxide” (Promega Corporation, priority 2011, dated 2015)

How the values were obtained:
[1] = Signal strength differences due to reaction pH and buffer composition (hydrogen peroxide, D-cysteine conversion, LDR); format: biochemical; settings: for Net Average Signals at 15 Minutes / Net Average Signals at 60 Minutes / Net Average Signals at 105 Minutes: 100 μl of 10 μM H2O2 added
Protocol: A 30 μl sample of 4 mg/ml PBI 4458 in DMSO was diluted to 1.5 ml with Nanopure water, and 50 μl added to wells A1-12 and E1-12 of a microtiter plate. A 30 μl sample of 4 mg/ml PBI 4472 in DMSO was diluted to 1.5 ml with Nanopure, and 50 μl added to wells B1-12 and F1-12 of the plate. A 30 μl sample of 4 mg/ml PBI 4480 in DMSO was diluted to 1.5 ml with Nanopure water, and 50 μl added to wells C1-12 and G1-12 of the plate. A 30 μl sample of 4 mg/ml PBI 4481 in DMSO was diluted to 1.5 ml with Nanopure water, and 50 μl added to wells D1-12 and H1-12 of the plate. To the plate, a 50 μl sample of 200 mM KHPO4, pH 7.4 was added to wells A1-D4; 50 μl 200 mM Tris buffer, pH 7.4 was added to wells A5-D8; 50 μl 250 mM HEPES buffer, pH 7.5 was added to wells A9-D12; 50 μl 200 mM KHPO4 buffer, pH 9.2 was added to wells E1-H4; 50 μl 250 mM Tris buffer, pH 10.4 was added to wells E5-H8; and 50 μl 100 mM CAPS buffer, pH 10.4 was added to wells E9-H12.
A sample of hydrogen peroxide (30%, Sigma, H1009-5 ml) was diluted to 10 μM with Nanopure water, and 100 μl added to columns 3, 4, 7, 8, 11, 12 wells A-H of the plate. 100 μl Nanopure water was added to columns 1, 2, 5, 6, 9 and 10 of the plate. The plate was incubated at room temperature for 15 minutes.
A conversion solution was made by mixing 5 ml of 1 M HEPES buffer, pH 7.5, 4.9 ml of Nanopure water and 100 μl of 100 mM D-cysteine (in Nanopure water), and […] added to all wells of a luminometer plate.
After incubation, 25 μl of sample from all wells in the plate was transferred and mixed into the corresponding wells in the luminometer plate, incubated 2-3 minutes at room temperature, and 50 μl LDR (Example 23) added. The luminometer plate was incubated for 15 minutes at room temperature, and bioluminescence detected on a GloMax® luminometer.
Additional samples were taken at 60 and 105 minutes and added to a fresh luminometer plates containing 25 μl of conversion solution in all wells. The plates were then incubated for 15 minutes at room temperature, and bioluminescence detected as previously described.

[2] = Light generation from compounds following incubation with hydrogen peroxide in different pH solutions (D-cysteine conversion, LDR); format: biochemical; settings: for Signal to Background Ratios: signal with peroxide to background no peroxide
In short: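 Compounds were diluted from 4 mg/ml DMSO stocks and incubated 60 min at room temperature in Tris pH 7.6, 8.8 or 10.4, with or without 40 μM H2O2 (solution concentration). Aliquots then went into D-cysteine conversion solution for 5 min before LDR luminescence. Duplicates were averaged and compared with no-peroxide wells at the same pH as signal-to-background.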

[3] = pH 7.6 TRIS buffer, No H2O2, 60 minutes
[4] = pH 7.6 TRIS buffer, With H2O2 (25 μl of 40 μM added), 60 minutes
[5] = pH 8.8 TRIS buffer, No H2O2, 60 minutes
[6] = pH 8.8 TRIS buffer, With H2O2 (25 μl of 40 μM added), 60 minutes
[7] = pH 10.4 Tris buffer, No H2O2, 60 minutes
[8] = pH 10.4 Tris buffer, With H2O2 (25 μl of 40 μM added), 60 minutes

CC1(C)OB(c2ccc(COc3ccc4nc(C#N)sc4c3)c3ccccc23)OC1(C)C [PBI 4480, 6-((4-(4,4,5,5-tetramethyl-1,3,2-dioxaborolan-2-yl)naphthalen-1-yl)methoxy)benzo[d]thiazole-2-carbonitrile]
Signal to Background Ratios at 15 Minutes ([1]; CAPS pH 10.4, 15 minutes): 12.1 | Net Average Signals at 15 Minutes ([1]; CAPS pH 10.4, 15 minutes): 1,799,015 RLU | Signal to Background Ratios at 60 Minutes ([1]; CAPS pH 10.4, 60 minutes): 14.7 | Net Average Signals at 60 Minutes ([1]; CAPS pH 10.4, 60 minutes): 4,256,769 RLU | Signal to Background Ratios at 105 Minutes ([1]; CAPS pH 10.4, 105 minutes): 12.6 | Net Average Signals at 105 Minutes ([1]; CAPS pH 10.4, 105 minutes): 7,150,225 RLU | Signal to Background Ratios at 15 Minutes ([1]; HEPES pH 7.5, 15 minutes): 1.0 | Net Average Signals at 15 Minutes ([1]; HEPES pH 7.5, 15 minutes): −234 RLU | Signal to Background Ratios at 60 Minutes ([1]; HEPES pH 7.5, 60 minutes): 1.7 | Net Average Signals at 60 Minutes ([1]; HEPES pH 7.5, 60 minutes): 29,727 RLU | Signal to Background Ratios at 105 Minutes ([1]; HEPES pH 7.5, 105 minutes): 2.3 | Net Average Signals at 105 Minutes ([1]; HEPES pH 7.5, 105 minutes): 75,066 RLU | Net Average Signals at 15 Minutes ([1]; KPO4 Ph 7.4, 15 minutes): 3,538 RLU | Signal to Background Ratios at 15 Minutes ([1]; KPO4 pH 7.4, 15 minutes): 1.1 | Signal to Background Ratios at 60 Minutes ([1]; KPO4 pH 7.4, 60 minutes): 1.6 | Net Average Signals at 60 Minutes ([1]; KPO4 pH 7.4, 60 minutes): 38,198 RLU | Signal to Background Ratios at 105 Minutes ([1]; KPO4 pH 7.4, 105 minutes): 1.9 | Net Average Signals at 105 Minutes ([1]; KPO4 pH 7.4, 105 minutes): 86,881 RLU | Signal to Background Ratios at 15 Minutes ([1]; KPO4 pH 9.2, 15 minutes): 1.7 | Net Average Signals at 15 Minutes ([1]; KPO4 pH 9.2, 15 minutes): 37,330 RLU | Signal to Background Ratios at 60 Minutes ([1]; KPO4 pH 9.2, 60 minutes): 3.6 | Net Average Signals at 60 Minutes ([1]; KPO4 pH 9.2, 60 minutes): 218,078 RLU | Signal to Background Ratios at 105 Minutes ([1]; KPO4 pH 9.2, 105 minutes): 5.1 | Net Average Signals at 105 Minutes ([1]; KPO4 pH 9.2, 105 minutes): 587,867 RLU | Signal to Background Ratios at 15 Minutes ([1]; TRIS pH 10.4, 15 minutes): 11.1 | Net Average Signals at 15 Minutes ([1]; TRIS pH 10.4, 15 minutes): 743,427 RLU | Signal to Background Ratios at 60 Minutes ([1]; TRIS pH 10.4, 60 minutes): 17.9 | Net Average Signals at 60 Minutes ([1]; TRIS pH 10.4, 60 minutes): 1,903,885 RLU | Signal to Background Ratios at 105 Minutes ([1]; TRIS pH 10.4, 105 minutes): 17.5 | Net Average Signals at 105 Minutes ([1]; TRIS pH 10.4, 105 minutes): 3,541,742 RLU | Signal to Background Ratios at 15 Minutes ([1]; Tris pH 7.4, 15 minutes): 1.2 | Net Average Signals at 15 Minutes ([1]; Tris pH 7.4, 15 minutes): 7,845 RLU | Signal to Background Ratios at 60 Minutes ([1]; Tris pH 7.4, 60 minutes): 2.0 | Net Average Signals at 60 Minutes ([1]; Tris pH 7.4, 60 minutes): 61,031 RLU | Signal to Background Ratios at 105 Minutes ([1]; Tris pH 7.4, 105 minutes): 2.6 | Net Average Signals at 105 Minutes ([1]; Tris pH 7.4, 105 minutes): 162,663 RLU | Signal to Background Ratios ([2]; pH 7.6): 4.5 | averaged RLUs (bioluminescence) [2, 3]: 146,664 RLU | averaged RLUs (bioluminescence) [2, 4]: 657,132 RLU | Signal to Background Ratios ([2]; pH 8.8): 8.7 | averaged RLUs (bioluminescence) [2, 5]: 179,821 RLU | averaged RLUs (bioluminescence) [2, 6]: 1,563,422 RLU | Signal to Background Ratios ([2]; pH 10.4): 20.0 | averaged RLUs (bioluminescence) [2, 7]: 265,315 RLU | averaged RLUs (bioluminescence) [2, 8]: 5,295,463 RLU

CC1(C)OB(c2ccc(COc3ccc4nc(C#N)sc4c3)cc2F)OC1(C)C [PBI 4481, 6-((3-fluoro-4-(4,4,5,5-tetramethyl-1,3,2-dioxaborolan-2-yl)benzyl)oxy)benzo[d]thiazole-2-carbonitrile]
Signal to Background Ratios at 15 Minutes ([1]; CAPS pH 10.4, 15 minutes): 15.0 | Net Average Signals at 15 Minutes ([1]; CAPS pH 10.4, 15 minutes): 3,139,869 RLU | Signal to Background Ratios at 60 Minutes ([1]; CAPS pH 10.4, 60 minutes): 15.6 | Net Average Signals at 60 Minutes ([1]; CAPS pH 10.4, 60 minutes): 4,514,998 RLU | Signal to Background Ratios at 105 Minutes ([1]; CAPS pH 10.4, 105 minutes): 12.3 | Net Average Signals at 105 Minutes ([1]; CAPS pH 10.4, 105 minutes): 6,646,007 RLU | Signal to Background Ratios at 15 Minutes ([1]; HEPES pH 7.5, 15 minutes): 1.4 | Net Average Signals at 15 Minutes ([1]; HEPES pH 7.5, 15 minutes): 15,697 RLU | Signal to Background Ratios at 60 Minutes ([1]; HEPES pH 7.5, 60 minutes): 2.5 | Net Average Signals at 60 Minutes ([1]; HEPES pH 7.5, 60 minutes): 56,121 RLU | Signal to Background Ratios at 105 Minutes ([1]; HEPES pH 7.5, 105 minutes): 3.0 | Net Average Signals at 105 Minutes ([1]; HEPES pH 7.5, 105 minutes): 111,757 RLU | Net Average Signals at 15 Minutes ([1]; KPO4 Ph 7.4, 15 minutes): 16,032 RLU | Signal to Background Ratios at 15 Minutes ([1]; KPO4 pH 7.4, 15 minutes): 1.5 | Signal to Background Ratios at 60 Minutes ([1]; KPO4 pH 7.4, 60 minutes): 2.2 | Net Average Signals at 60 Minutes ([1]; KPO4 pH 7.4, 60 minutes): 48,355 RLU | Signal to Background Ratios at 105 Minutes ([1]; KPO4 pH 7.4, 105 minutes): 2.7 | Net Average Signals at 105 Minutes ([1]; KPO4 pH 7.4, 105 minutes): 108,403 RLU | Signal to Background Ratios at 15 Minutes ([1]; KPO4 pH 9.2, 15 minutes): 4.7 | Net Average Signals at 15 Minutes ([1]; KPO4 pH 9.2, 15 minutes): 189,573 RLU | Signal to Background Ratios at 60 Minutes ([1]; KPO4 pH 9.2, 60 minutes): 8.3 | Net Average Signals at 60 Minutes ([1]; KPO4 pH 9.2, 60 minutes): 494,981 RLU | Signal to Background Ratios at 105 Minutes ([1]; KPO4 pH 9.2, 105 minutes): 7.7 | Net Average Signals at 105 Minutes ([1]; KPO4 pH 9.2, 105 minutes): 974,784 RLU | Signal to Background Ratios at 15 Minutes ([1]; TRIS pH 10.4, 15 minutes): 23.2 | Net Average Signals at 15 Minutes ([1]; TRIS pH 10.4, 15 minutes): 1,467,615 RLU | Signal to Background Ratios at 60 Minutes ([1]; TRIS pH 10.4, 60 minutes): 27.8 | Net Average Signals at 60 Minutes ([1]; TRIS pH 10.4, 60 minutes): 2,780,433 RLU | Signal to Background Ratios at 105 Minutes ([1]; TRIS pH 10.4, 105 minutes): 24.2 | Net Average Signals at 105 Minutes ([1]; TRIS pH 10.4, 105 minutes): 4,441,956 RLU | Signal to Background Ratios at 15 Minutes ([1]; Tris pH 7.4, 15 minutes): 1.9 | Net Average Signals at 15 Minutes ([1]; Tris pH 7.4, 15 minutes): 29,382 RLU | Signal to Background Ratios at 60 Minutes ([1]; Tris pH 7.4, 60 minutes): 3.5 | Net Average Signals at 60 Minutes ([1]; Tris pH 7.4, 60 minutes): 111,440 RLU | Signal to Background Ratios at 105 Minutes ([1]; Tris pH 7.4, 105 minutes): 4.4 | Net Average Signals at 105 Minutes ([1]; Tris pH 7.4, 105 minutes): 245,489 RLU | Signal to Background Ratios ([2]; pH 7.6): 7.0 | averaged RLUs (bioluminescence) [2, 3]: 124,246 RLU | averaged RLUs (bioluminescence) [2, 4]: 873,626 RLU | Signal to Background Ratios ([2]; pH 8.8): 21.1 | averaged RLUs (bioluminescence) [2, 5]: 135,530 RLU | averaged RLUs (bioluminescence) [2, 6]: 2,854,279 RLU | Signal to Background Ratios ([2]; pH 10.4): 32.4 | averaged RLUs (bioluminescence) [2, 7]: 230,459 RLU | averaged RLUs (bioluminescence) [2, 8]: 7,474,603 RLU
